Assay results taken from patent publication US12502380B2, “MrgprX2 antagonists for the treatment of inflammatory disorders” (Dermira, Inc., priority 2019, dated 2025).

Target: T1, Human MrgprX2 (Homo sapiens, UniProt Q96LB1)
T1 construct: expressed in transfected cells
T1 sequence (Q96LB1 1-330): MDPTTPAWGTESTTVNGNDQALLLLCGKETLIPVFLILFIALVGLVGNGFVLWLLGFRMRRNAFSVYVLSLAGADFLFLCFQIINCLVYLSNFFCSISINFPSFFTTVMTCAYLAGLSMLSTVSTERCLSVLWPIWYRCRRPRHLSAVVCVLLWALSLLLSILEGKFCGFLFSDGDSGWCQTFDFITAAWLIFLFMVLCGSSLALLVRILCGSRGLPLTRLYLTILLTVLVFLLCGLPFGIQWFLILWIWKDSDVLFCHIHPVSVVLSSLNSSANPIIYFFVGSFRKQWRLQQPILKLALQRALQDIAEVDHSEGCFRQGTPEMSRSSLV
Experiment: Human MrgprX2 antagonist FLIPR intracellular calcium mobilization assay
Format: cell-based
Conditions: antagonist activity, recombinant hMrgpMRGPRX2 expressing cells, read-out: Human MrgprX2 Antagonist pIC50 (converted)
Text: Potent and selective hMrgpMRGPRX2 compounds have been generated from compounds identified during a high throughput screening (HTS) campaign and followed up with cycles of structure activity based medicinal chemistry efforts. These compounds were characterized in recombinant hMrgpMRGPRX2 expressing cells for their antagonist activity and the potency was confirmed in the human mast cell line LAD-2, where the target is endogenously expressed. The assays used to determine potencies are functional read-out looking at intracellular calcium mobilization using the FLIPR™ technology. In these FLIPR assays, we test the identified compounds using recombinant cellular systems expressing mouse MrgprB2, mouse MrgprA1, gerbil MrgpMRGPRX2 orthologue, Chinese hamster MrgpMRGPRX2 orthologue and cynomolgus monkey MrgpMRGPRX2 orthologue, respectively for orthologue activity.

Work on `CC(C)N(C)C(=O)c1ncc(Cc2cccc(F)c2)s1` [Compound E218, 5-[(3-fluorophenyl)methyl]-N-isopropyl-N-methyl-thiazole-2-carboxamide] yielded an IC50 of 7940 nM.
Compound `C[C@H](O)CN(C)C(=O)Nc1ncc(Oc2cccc(C(F)(F)F)c2)s1` [Compound E182] has an IC50 of 20 nM.
Work on `CN(C[C@@H](O)C(F)(F)F)C(=O)Nc1ncc(Cc2cccc(F)c2)s1` [Compound E111] yielded an IC50 of 3.16 nM.
For `CC1(C(=O)Nc2ncc(Cc3ccccc3F)s2)CCN(S(C)(=O)=O)CC1` [Compound E060, N-[5-[(2-fluorophenyl)methyl]thiazol-2-yl]-4-methyl-1-methylsulfonyl-piperidine-4-carboxamide], the IC50 was 2510 nM.
`C[C@H]1CN(C(=O)Nc2ncc(Cc3cccc(F)c3)s2)CCO1` [Compound E107] gave an IC50 of 3980 nM.
Work on `CCN(C[C@H](C)O)C(=O)Nc1ncc(Oc2cc(C)cc(C#N)c2)s1` [Compound E206] yielded an IC50 of 6.31 nM.
For `CCN(C[C@H](C)O)C(=O)Nc1ncc(Oc2ccccc2C#N)s1` [Compound E175], the IC50 was 316 nM.
Compound `CCN(C[C@H](C)O)C(=O)Nc1ncc(Oc2ccc(C#N)cc2F)s1` [Compound E190] has an IC50 of 6.31 nM.
With `CC1(C(=O)Nc2ncc(Cc3cccc(F)c3)s2)CCC(=O)N1` (centres unmarked) [Compound E032] the IC50 was 7940 nM.
`CC(C)NC(=O)c1cc(Cc2cc(F)cc(F)c2)on1` [Compound E221, 5-[(3,5-difluorophenyl)methyl]-N-isopropyl-isoxazole-3-carboxamide] showed an IC50 of 6310 nM.
For `C[C@H](O)CN(C)C(=O)Nc1ncc(Oc2cncc(C#N)c2)s1` [Compound E172], the IC50 was 1580 nM.
For `CCN(C[C@H](C)O)C(=O)Nc1nc(C)c(Oc2ccc(F)cc2)s1` [Compound E208], the IC50 was 7.94 nM.
With `CC(O)CN(C(=O)Nc1ncc(Cc2cccc(F)c2)s1)C1CC1` (centres unmarked) [Compound E114] the IC50 was 794 nM.
Compound `CCN(C[C@H](C)O)C(=O)Nc1ncc(Oc2ccccc2F)s1` [Compound E171] has an IC50 of 0.794 nM.
`CCN(C[C@H](C)O)C(=O)Nc1ncc(Oc2cccc(C#N)c2)s1` [Compound E162] gave an IC50 of 1.58 nM.
In the case of `N#Cc1cc(F)cc(Oc2cnc(NC(=O)[C@H]3CCCN3S(N)(=O)=O)s2)c1` [Compound E090, (2R)—N-[5-(3-cyano-5-fluoro-phenoxy)thiazol-2-yl]-1-sulfamoyl-pyrrolidine-2-carboxamide], the IC50 is reported as 31.6 nM.
`CC(C)(CO)C(=O)Nc1ncc(Cc2ccccc2F)s1` [Compound E010] showed an IC50 of 1260 nM.
`C[C@]1(C(=O)Nc2ncc(Cc3cccc(Cl)c3)s2)CCOC1` (single isomer, unassigned) [Compound E051, N-[5-[(3-chlorophenyl)methyl]thiazol-2-yl]-3-methyl-tetrahydrofuran-3-carboxamide] gave an IC50 of 100 nM.
In the case of `C[C@H](O)CN(C)C(=O)Nc1ncc(Oc2ccc(C(F)(F)F)cc2)s1` [Compound E160], the IC50 is reported as 2510 nM.
Work on `CC1(C(=O)Nc2ncc(Cc3ccccc3F)s2)CCOCC1` [Compound E004] yielded an IC50 of 398 nM.
`NS(=O)(=O)N1CCC[C@@H]1C(=O)Nc1ncc(Oc2ccccc2)s1` [Compound E086, (2R)—N-(5-phenoxythiazol-2-yl)-1-sulfamoyl-pyrrolidine-2-carboxamide] was tested, and the IC50 was 15.8 nM.
Work on `C[C@]1(C(=O)Nc2ncc(Oc3cccc(F)c3)s2)CCOC1` (single isomer, unassigned) [Compound E084, N-[5-(3-fluorophenoxy)thiazol-2-yl]-3-methyl-tetrahydrofuran-3-carboxamide] yielded an IC50 of 3.16 nM.
Compound `CC1(C(=O)Nc2ncc(Oc3cccc(F)c3)s2)CCOC1` (centres unmarked) [Compound E078, N-[5-(3-fluorophenoxy)thiazol-2-yl]-3-methyl-tetrahydrofuran-3-carboxamide] has an IC50 of 2.51 nM.
Compound `CCN(CC(C)O)C(=O)Nc1ncc(Cc2cccc(F)c2)s1` (centres unmarked) [Compound E110] has an IC50 of 0.501 nM.
Work on `CCN(C[C@H](C)O)C(=O)Nc1nc2ccccc2s1` [Compound E129] yielded an IC50 of 1000 nM.
`C[C@H](O)CN(C)C(=O)Nc1ncc(Oc2ccc(C#N)cc2F)s1` [Compound E189] gave an IC50 of 398 nM.
Compound `CC1(C(=O)Nc2ncc(Cc3cc(F)cc(F)c3)s2)CCOC1` (centres unmarked) [Compound E046, N-[5-[(3,5-difluorophenyl)methyl]thiazol-2-yl]-3-methyl-tetrahydrofuran-3-carboxamide] has an IC50 of 5.01 nM.
For `CCN(C[C@H](C)O)C(=O)Nc1ncc(Oc2cccnc2F)s1` [Compound E203], the IC50 was 100 nM.
For `CC(=O)N1CCC[C@@H]1C(=O)Nc1ncc(Cc2cccc(F)c2)s1` [Compound E055, (2R)-1-acetyl-N-[5-[(3-fluorophenyl)methyl]thiazol-2-yl]pyrrolidine-2-carboxamide], the IC50 was 3980 nM.
`CC1(C(=O)Nc2ncc(Oc3ccccc3)s2)CCOCC1` [Compound E020] showed an IC50 of 126 nM.
`CCN(C[C@H](C)O)C(=O)Nc1ncc(Oc2ccc(Cl)nc2)s1` [Compound E202] gave an IC50 of 200 nM.
Work on `O=C(Nc1ncc(Cc2cccc(F)c2)s1)N1CCOC[C@@H]1CO` [Compound E124] yielded an IC50 of 794 nM.
`O=C(Nc1ncc(Cc2cccc(F)c2)s1)N1CCC[C@H]1CO` [Compound E120] was tested, and the IC50 was 398 nM.
`CC(C)C(=O)Nc1cnc(Cc2cccc(F)c2)s1` [Compound E216, N-[2-[(3-fluorophenyl)methyl]thiazol-5-yl]-2-methyl-propanamide] gave an IC50 of 7940 nM.
`CC1(C(=O)Nc2ncc(Cc3ccccc3F)s2)COC1` [Compound E016] gave an IC50 of 3980 nM.
`CC(C)(C(=O)Nc1ncc(Cc2ccc(F)cc2)s1)N1CCOCC1` [Compound E006] gave an IC50 of 126 nM.
`CC(C)C(=O)Nc1ncc(N(C)c2ccccc2)s1` [Compound E073] gave an IC50 of 1580 nM.
`CC1(C(=O)Nc2ncc(Oc3cccc(F)c3)s2)CCOCC1` [Compound E070, N-[5-(3-fluorophenoxy)thiazol-2-yl]-4-methyl-tetrahydropyran-4-carboxamide] gave an IC50 of 5.01 nM.
Work on `C[C@]1(C(=O)Nc2ncc(Cc3cccc(F)c3)s2)CCOC1` (single isomer, unassigned) [Compound E049, N-[5-[(3-fluorophenyl)methyl]thiazol-2-yl]-3-methyl-tetrahydrofuran-3-carboxamide] yielded an IC50 of 200 nM.
`CC(C)(C)OC(=O)N1CCC(C)(C(=O)Nc2ncc(Cc3ccccc3F)s2)CC1` [Compound E018] gave an IC50 of 316 nM.
For `C[C@H](O)CN(C)C(=O)Nc1ncc(Cc2ccc(F)c(F)c2)s1` [Compound E135], the IC50 was 15.8 nM.
`C[C@H](O)CN(C)C(=O)Nc1ncc(Oc2ccc(F)cc2C#N)s1` [Compound E192] showed an IC50 of 3160 nM.
`CN(CC(C)(C)O)C(=O)Nc1ncc(Cc2cccc(F)c2)s1` [Compound E108] was tested, and the IC50 was 1.58 nM.
`CCN(C[C@H](C)O)C(=O)Nc1ncc(Oc2cncc(C(F)(F)F)c2)s1` [Compound E180] gave an IC50 of 251 nM.
For `CC(C)C(=O)Nc1ncc(Cc2cccc(F)c2F)s1` [Compound E094], the IC50 was 7.94 nM.
`CC(C)C(=O)Nc1ncc(Cc2cccc(C(F)(F)F)c2)s1` [Compound E002] was tested, and the IC50 was 7940 nM.
With `CCN(C[C@H](C)O)C(=O)Nc1ncc(Oc2cccnc2)s1` [Compound E166] the IC50 was 100 nM.
Work on `CCN(C[C@H](C)O)C(=O)Nc1ncc(Oc2cccc(C(F)(F)F)c2)s1` [Compound E183] yielded an IC50 of 3.16 nM.
In the case of `C[C@H](O)CN(C)C(=O)Nc1ncc(Oc2ccccc2C#N)s1` [Compound E174], the IC50 is reported as 631 nM.
With `CCN(C[C@H](C)O)C(=O)Nc1nc(C)c(Oc2cc(F)cc(C#N)c2)s1` [Compound E209] the IC50 was 3.16 nM.
`CCN(C[C@@H](C)O)C(=O)Nc1ncc(Oc2cc(F)cc(C#N)c2)s1` [Compound E210] gave an IC50 of 2.51 nM.
`CC1(C(=O)Nc2ncc(Cc3cccc(Cl)c3)s2)CCOCC1` [Compound E023] was tested, and the IC50 was 126 nM.
In the case of `CCN(C[C@H](C)O)C(=O)Nc1ncc(Cc2cccc(Cl)c2)s1` [Compound E098, 3-[5-[(3-chlorophenyl)methyl]thiazol-2-yl]-1-ethyl-1-[(2S)-2-hydroxypropyl]urea], the IC50 is reported as 3.16 nM.
For `CCN(C[C@H](C)O)C(=O)Nc1ncc(Cc2cccc(F)c2OC)s1` [Compound E140], the IC50 was 501 nM.
For `CC(C)C(=O)Nc1ncc(Oc2ccc(F)cc2)s1` [Compound E074], the IC50 was 10 nM.
`CCN(C[C@H](C)O)C(=O)Nc1ncc(Oc2cc(F)ccc2C#N)s1` [Compound E196] gave an IC50 of 316 nM.
`C[C@@H](CO)C(=O)Nc1ncc(Cc2cccc(F)c2)s1` [Compound E031] was tested, and the IC50 was 2000 nM.
Compound `C[C@H](O)CN(C)C(=O)Nc1ncc(Oc2cccc(F)c2)s1` [Compound E152] has an IC50 of 1.58 nM.
Work on `O=C(Nc1ncc(Cc2cccc(F)c2)s1)C1(CO)CC1` [Compound E029] yielded an IC50 of 631 nM.
`CC1(C(=O)Nc2ncc(Oc3cncc(F)c3)s2)CCOCC1` [Compound E080] gave an IC50 of 501 nM.
With `O=C(Nc1ncc(Cc2cccc(F)c2)s1)N1CCC[C@@H]1CO` [Compound E121] the IC50 was 39.8 nM.
`C[C@@H](O)CN(C)C(=O)Nc1ncc(Oc2ccccc2)s1` [Compound E148] gave an IC50 of 15.8 nM.
In the case of `CC(C)C(=O)Nc1ncc(C(C)c2ccccc2)s1` (centres unmarked) [Compound E219, 2-methyl-N-[5-(1-phenylethyl)thiazol-2-yl]propanamide], the IC50 is reported as 794 nM.
`C[C@H](O)CN(C)C(=O)Nc1ncc(Cc2ccc(F)cc2)s1` [Compound E130] gave an IC50 of 200 nM.
`CCN(C[C@H](C)O)C(=O)Nc1ncc(Oc2cccc(Cl)c2)s1` [Compound E153] gave an IC50 of 0.794 nM.
